Data published in patent publication US7414066B2, “Amide compounds and medications containing the same technical field” (Kowa Company Ltd., priority 1999, dated 2008).

SMILES	melting point [°C]
CCSc1cc(C)nc(SCC)c1NC(=O)CCCCCCCCSc1nc2c(C)c(Cl)cc(C(C)C)c2o1 [Compound No. 1284, 9-(5-chloro-7-isopropyl-4-methylbenzoxazol-2-ylthio)-N-[2,4-bis(ethylthio)-6-methyl-3-pyridyl]nonanamide]	93 to 94
CCSc1cc(C)nc(SCC)c1NC(=O)CCCSc1nc2cccc(C(F)(F)F)c2o1 [Compound No. 1269, 4-(7-trifluoromethylbenzoxazol-2-ylthio)-N-[2,4-bis(ethylthio)-6-methyl-3-pyridyl]butanamide]	148 to 150
CCSc1cc(C)nc(SCC)c1NC(=O)CCCCCCSc1nc2c(C)c(Cl)cc(C(C)C)c2o1 [Compound No. 1282, 7-(5-chloro-7-isopropyl-4-methylbenzoxazol-2-ylthio)-N-[2,4-bis(ethylthio)-6-methyl-3-pyridyl]heptanamide]	117 to 120
CSc1nccc(C)c1NC(=O)CCCCCSc1nc2ccccc2o1 [Compound No. 155, 6-(benzoxazol-2-ylthio)-N-(4-methyl-2-methylthio-3-pyridyl)hexanamide]	122 to 124
Cc1cc(SC(C)C)c(NC(=O)CCCCSc2nc3ccccc3o2)c(SC(C)C)n1 [Compound No. 844, 5-(benzoxazol-2-ylthio)-N-[2,4-bis(isopropylthio)-6-methyl-3-pyridyl]pentanamide]	129 to 130
CSc1nc(C)ccc1NC(=O)CCCCCSc1nc2ccccc2s1 [compound 465, 6-(benzothiazol-2-ylthio)-N-(6-methyl-2-methylthio-3-pyridyl)hexanamide]	122 to 123
CSc1cc(C)nc(SC)c1NC(=O)CCCCCCCSc1nc2c(C)c(Cl)cc(C(C)C)c2o1 [Example 95, 8-(5-chloro-7-isopropyl-4-methylbenzoxazol-2-ylthio)-N-[2,4-bis(methylthio)-6-methyl-3-pyridyl]octanamide]	128 to 131
CSc1cc(C)nc(SC)c1NC(=O)CSc1nc2ccccc2s1 [Compound No. 791, 2-(benzothiazol-2-ylthio)-N-[2,4-bis(methylthio)-6-methyl-3-pyridyl)acetamide]	178 to 179
Cc1cc(SC(C)C)c(NC(=O)CSc2nc3ccccc3[nH]2)c(SC(C)C)n1 [Compound No. 861, 2-(benzimidazol-2-ylthio)-N-[2,4-bis(isopropylthio)-6-methyl-3-pyridyl]acetamide]	223 to 224
CSc1ncccc1NC(=O)CCCCCSc1nc2ccccc2s1 [compound 15, 6-(benzothiazol-2-ylthio)-N-(2-methylthio-3-pyridyl)hexanamide]	118 to 119
Cc1cc(SC(C)C)c(NC(=O)CCCCCSc2nc3ccccc3s2)c(SC(C)C)n1 [Compound No. 855, 6-(benzothiazol-2-ylthio)-N-[2,4-bis(isopropylthio)-6-methyl-3-pyridyl]hexanamide]	84 to 86
CSc1ncccc1NC(=O)CCCCCSc1nc2ccccc2o1 [compound 5, 6-(benzoxazol-2-ylthio)-N-(2-methylthio-3-pyridyl)hexanamide]	127 to 128
CSc1nc(C)ccc1NC(=O)CCCCCSc1nc2ccccc2o1 [compound 455, 6-(benzoxazol-2-ylthio)-N-(6-methyl-2-methylthio-3-pyridyl)hexanamide]	140 to 141
CCSc1cc(C)nc(SCC)c1NC(=O)CCCCCCSc1nc2cccc(C(F)(F)F)c2o1 [Compound No. 1272, 7-(7-trifluoromethylbenzoxazol-2-ylthio)-N-[2,4-bis(ethylthio)-6-methyl-3-pyridyl]heptanamide]	127 to 128
CSc1cc(C)nc(SC)c1NC(=O)CSc1nc2cccc(C(F)(F)F)c2o1 [Compound No. 1247, 2-(7-trifluoromethylbenzoxazol-2-ylthio)-N-[2,4-bis(methylthio)-6-methyl-3-pyridyl]acetamide]	207 to 209
CCSc1cc(C)nc(SCC)c1NC(=O)CSc1nc2ccccc2s1 [compound 821, 2-(benzothiazol-2-ylthio)-N-[2,4-bis(ethylthio)-6-methyl-3-pyridyl]acetamide]	119 to 120
CCSc1cc(C)nc(SCC)c1NC(=O)CSc1nc2cccc(C(=O)OC)c2o1 [Compound No. 1427, 2-(7-methoxycarbonylbenzoxazol-2-ylthio)-N-[2,4-bis(ethylthio)-6-methyl-3-pyridyl]acetamide]	168 to 169
CSc1cc(C)nc(SC)c1NC(=O)CCCCSc1nc2cccc(C(F)(F)F)c2o1 [Compound No. 1250, 5-(7-trifluoromethylbenzoxazol-2-ylthio)-N-[2,4-bis(methylthio)-6-methyl-3-pyridyl]pentanamide]	179 to 180
CCSc1cc(C)nc(SCC)c1NC(=O)CCCCSc1nc2cccc(C(F)(F)F)c2o1 [Compound No. 1270, 5-(7-trifluoromethylbenzoxazol-2-ylthio)-N-[2,4-bis(ethylthio)-6-methyl-3-pyridyl]pentanamide]	155 to 156

The next lines start with the values.

melting point [°C]	SMILES
189 to 192	CSc1cc(C)nc(SC)c1NC(=O)CCCCCCSc1nc2ccccc2[nH]1 [Compound No. 806, 7-(benzimidazol-2-ylthio)-N-[2,4-bis(methylthio)-6-methyl-3-pyridyl]heptanamide]
175 to 176	Cc1cc(SC(C)C)c(NC(=O)CCCCCSc2nc3ccccc3[nH]2)c(SC(C)C)n1 [Compound No. 865, 6-(benzimidazol-2-ylthio)-N-[2,4-bis(isopropylthio)-6-methyl-3-pyridyl]hexanamide]
82 to 84	CCSc1cc(C)nc(SCC)c1NC(=O)CCCCCCCSc1nc2ccccc2o1 [Compound No. 817, 8-(benzoxazol-2-ylthio)-N-[2,4-bis(ethylthio)-6-methyl-3-pyridyl]octanamide]
160 to 161	CCSc1cc(C)nc(SCC)c1NC(=O)CCCSc1nc2ccccc2[nH]1 [Compound No. 833, 4-(benzimidazol-2-ylthio)-N-[2,4-bis(ethylthio)-6-methyl-3-pyridyl]butanamide]
99 to 100	CSc1nc(C)ccc1NC(=O)CCCCCCCCSc1nc2ccccc2o1 [compound 458, 9-(benzoxazol-2-ylthio)-N-(6-methyl-2-methylthio-3-pyridyl)nonanamide]
186 to 187	CSc1cc(C)nc(SC)c1NC(=O)CCCCCCCSc1nc2ccccc2[nH]1 [Compound No. 807, 8-(benzimidazol-2-ylthio)-N-[2,4-bis(methylthio)-6-methyl-3-pyridyl]octanamide]
84 to 87	CCSc1cc(C)nc(SCC)c1NC(=O)CCCCCCCCSc1nc2ccccc2o1 [compound 818, 9-(benzoxazol-2-ylthio)-N-[2,4-bis(ethylthio)-6-methyl-3-pyridyl]nonanamide]
118 to 121	Cc1cc(SC(C)C)c(NC(=O)CCCCCCSc2nc3ccccc3[nH]2)c(SC(C)C)n1 [Compound No. 866, 7-(benzoimidazol-2-ylthio)-N-[2,4-bis(isopropylthio)-6-methyl-3-pyridyl]heptanamide]
141 to 142	COC(=O)c1cccc2nc(SCCCCCC(=O)Nc3c(SC)cc(C)nc3SC)oc12 [Compound No. 1238, 6-(7-methoxycarbonylbenzoxazol-2-ylthio)-N-[2,4-bis(methylthio)-6-methyl-3-pyridyl]hexanamide]
131 to 133	CSc1cc(C)nc(SC)c1NC(=O)CCCSc1nc2ccccc2s1 [compound 793, 4-(benzothiazol-2-ylthio)-N-[2,4-bis(methylthio)-6-methyl-3-pyridyl]butanamide]
126 to 127	CSc1cc(C)nc(SC)c1NC(=O)CCCCCCCCSc1nc2ccccc2s1 [compound 798, 9-(benzothiazol-2-ylthio)-N-[2,4-bis(methylthio)-6-methyl-3-pyridyl]nonanamide]
147 to 150	CSc1cc(C)nc(SC)c1NC(=O)CCCCSc1nc2ccccc2o1 [Compound No. 784, 5-(benzoxazol-2-ylthio)-N-(2,4-bis(methylthio)-6-methyl-3-pyridyl)pentanamide]
107 to 108	Cc1cc(SC(C)C)c(NC(=O)CCCCCCCSc2nc3ccccc3s2)c(SC(C)C)n1 [Compound No. 857, 8-(benzothiazol-2-ylthio)-N-[2,4-bis(isopropylthio)-6-methyl-3-pyridyl]octanamide]
149 to 150	CSc1cc(C)nc(SC)c1NC(=O)CCCSc1nc2ccccc2o1 [compound 783, 4-(benzoxazol-2-ylthio)-N-[2,4-bis(methylthio)-6-methyl-3-pyridyl]butanamide]
148 to 151	CSc1nc(C)nc(SC)c1NC(=O)CCCCCSc1nc2ccccc2o1 [Compound No. 1145, 6-(benzoxazole-2-ylthio)-N-[2-methyl-4,6-bis(methylthio)-5-pyrimidyl)hexanamide]
115 to 116	CSc1cc(C)nc(SC)c1NC(=O)CCCCCCCSc1nc2cccc(C(F)(F)F)c2o1 [Compound No. 1253, 8-(7-trifluoromethylbenzoxazol-2-ylthio)-N-[2,4-bis(methylthio)-6-methyl-3-pyridyl]octanamide]
151 to 156	CCSc1cc(C)nc(SCC)c1NC(=O)CCCCCCSc1nc2ccccc2[nH]1 [Compound No. 836, 7-(benzimidazol-2-ylthio)-N-[2,4-bis(ethylthio)-6-methyl-3-pyridyl]heptanamide]
177 to 179	CSc1cc(C)nc(SC)c1NC(=O)CCCSc1nc2ccccc2[nH]1 [compound 803, 4-(benzimidazol-2-ylthio)-N-[2,4-bis(methylthio)-6-methyl-3-pyridyl]butanamide]
138 to 140	CSc1nc(C)ccc1NC(=O)CCCCCSc1nc2ccccc2[nH]1 [compound 475, 6-(benzimidazol-2-ylthio)-N-(6-methyl-2-methylthio-3-pyridyl)hexanamide]
104 to 108	CSc1cc(C)nc(SC)c1NC(=O)CCCCCCCSc1nc2ccccc2s1 [Compound No. 797, 8-(benzthiazol-2-ylthio)-N-[2,4-bis(methylthio)-6-methyl-3-pyridyl)octanamide]
